According to patent publication US20200163984A1, “USE OF ISOVALERYL SPIRAMYCIN I, II AND/OR III IN MANUFACTURING MEDICAMENT FOR TREATING AND/OR PREVENTING TUMOR, AND MEDICAMENT” (SHENYANG FUYANG PHARMACEUTICAL TECHNOLOGY CO., LTD., priority 2017, published 2020):
≈ marks a conversion by molar mass, not a printed value.

How the values were obtained:
[1] = tested on: human promyelocytic leukemia cell HL-60; settings: HL-60, MTT, 48 h
Description: (§1) The purpose of the assay is to evaluate the in vitro cell proliferation inhibition or cytotoxic activity of a tested sample.
(§2) U937 and HL-60 were suspension cells, and cells in a logarithmic growth phase were selected and prepared into a 2×10^5/ml cell suspension by a RPMI 1640 culture medium containing 10% fetal bovine serum. And the cell suspension was inoculated in a 96-well culture plate, and each well was 50 μL and the 96-well culture plate was cultured at 37° C. and 5% CO2 for 24 hours. 50 μL of a culture medium containing different concentrations of the tested sample isovaleryl spiramycin I, isovaleryl spiramycin II, or isovaleryl spiramycin III was added in the experimental group, while a culture medium containing the same volume of solvent was added into the control group. Each group was set up with 3 parallel wells that were cultured at 37° C. and 5% CO2 for 48 h. And 10 μL of freshly prepared medium containing 5 mg/ml MTT was added into each well for continuous incubation for 4 hours at 37° C. The crystals were dissolved in 100 μL of a triple solution (SDS 10 g, 10 M HCl 0.1 mL, isobutanol 5 mL, diluted with distilled water to 100 mL), and incubated at 37° C. for 12 hours. The optical density value was measured at 492 nm with a microplate reader.
(§3) The inhibition rate of the medicament on tumor cell growth is calculated according to the following formula:
(§4) Tumor cell growth inhibition rate (%)=[A492 (negative control)−A492 (dosing group)]/A492 (negative control)×100%
(§5) And the half-inhibitory concentration (IC50) of the sample is determined therefrom.

[2] = tested on: human tissue lymphoma cell U937; settings: U937, MTT, 48 h
Description: as §1, §2, §3, §4, §5

[3] = tested on: transplanted tumor of human prostate cancer cell PC3; experiment: PC3 transplanted tumor in nude mice
Description: (§6) Then cell concentration was adjusted to 1×10^7/ml with matrigel, then each nude mouse was inoculated subcutaneously with 0.2 ml of cells at its right armpit and recorded as the first day of inoculation. When the tumor grows to be greater than or equal to 100 mm^3, the mice were randomly divided into 11 groups with 6 mice in each group: a model group, a cyclophosphamide group, isovaleryl spiramycin I groups with doses of 25, 50 and 100 mg/kg, isovaleryl spiramycin II groups with doses of 25, 50 and 100 mg/kg, and isovaleryl spiramycin III groups with doses of 25, 50 and 100 mg/kg. Each group was continuously administered intragastrically for 30 days with a dose of 20 ml/kg. The mice were sacrificed the next day after drug withdrawal and the indicators were tested. The long diameter and short diameter of the tumor, and the body weight of each mouse were recorded every 3 days from drug administration to nude mouse sacrifice.
(§7) The body weight of the nude mice and the long diameter (a) and short diameter (b) of the transplanted tumor were measured every 3 days, and the tumor volume (v), relative tumor volume (RTV) and relative tumor proliferation rate (T/C) are calculated respectively according to the following formulas, wherein V=a×b^2/2; RTV=V/V0 (V0 is the tumor volume before administration, V is the tumor volume before sacrifice), and T/C (%)=treatment group RTV/model control group RTV×100%.
(§8) Each mouse was weighed and sacrificed. After the tumor was completely stripped off from the body of the mouse, the non-tumor tissues such as blood stains and fat were removed to weigh the tumor and calculate the tumor growth inhibition rate. The average tumor weight of each group of mice is used as an indicator of efficacy. Tumor growth inhibition rate (%)=(1−the average tumor weight of the treatment group/the average tumor weight of the model group)×100%.

[4] = tested on: transplanted tumor of human breast cancer cell MDA-MB-231; experiment: MDA-MB-231 transplanted tumor in nude mice
Description: as §6, §7, §8

[5] = tested on: transplanted tumor of HT-29 cells; experiment: HT-29 transplanted tumor in nude mice; settings: for Inhibition Rate (%) / Tumor Weight: HT-29 nude mice; for Tumor Volume (mm3) (d30): d 30
Description: as §6, with “group:” for “group: a model group, a cyclophosphamide group,”
as §7, §8

[6] = PC3, 25 mg/kg (low dose) i.g. 30 days
[7] = PC3, 50 mg/kg (medium dose) i.g. 30 days
[8] = PC3, 100 mg/kg (high dose) i.g. 30 days
[9] = MDA-MB-231, 25 mg/kg (low dose) i.g. 30 days
[10] = MDA-MB-231, 50 mg/kg (medium dose) i.g. 30 days
[11] = MDA-MB-231, 100 mg/kg (high dose) i.g. 30 days
[12] = HT-29, high dose (100 mg/kg in method) i.g. 30 days
[13] = HT-29, low dose (25 mg/kg in method) i.g. 30 days
[14] = HT-29, medium dose (50 mg/kg in method) i.g. 30 days

COC1C(OC(C)=O)CC(=O)OC(C)CC=CC=CC(OC2CCC(N(C)C)C(C)O2)C(C)CC(CC=O)C1OC1OC(C)C(OC2CC(C)(O)C(OC(=O)CC(C)C)C(C)O2)C(N(C)C)C1O (centres unmarked) [Isovaleryl spiramycin II, isovaleryl spiramycin II]
IC50 [1]: 29.39 ± 1.82 µg/mL (≈ 30.3 µM)
IC50 [2]: 34.92 ± 0.81 µg/mL (≈ 36 µM)
Inhibition Rate (tumor growth inhibition rate) [3, 6]: 23.49%
Relative Tumor Proliferation Rate (T/C) [3, 6]: 83.04%
Relative Tumor Volume (RTV) [3, 6]: 16.24 ± 6.00
Tumor Volume (d 1) [3, 6]: 154.86 ± 4.11 mm3
Tumor Volume (d 30) [3, 6]: 2404.85 ± 672.33 mm3
Tumor Weight [3, 6]: 1.44 ± 0.56 g
Inhibition Rate (tumor growth inhibition rate) [3, 7]: 40.16%
Relative Tumor Proliferation Rate (T/C) [3, 7]: 60.08%
Relative Tumor Volume (RTV) [3, 7]: 11.75 ± 3.78
Tumor Volume (d 1) [3, 7]: 157.25 ± 38.97 mm3
Tumor Volume (d 30) [3, 7]: 1729.14 ± 128.57 mm3
Tumor Weight [3, 7]: 1.13 ± 0.43 g
Inhibition Rate (tumor growth inhibition rate) [3, 8]: 50.44%
Relative Tumor Proliferation Rate (T/C) [3, 8]: 44.48%
Relative Tumor Volume (RTV) [3, 8]: 8.70 ± 2.61
Tumor Volume (d 1) [3, 8]: 131.11 ± 22.05 mm3
Tumor Volume (d 30) [3, 8]: 1162.46 ± 495.46 mm3
Tumor Weight [3, 8]: 0.93 ± 0.27 g
tumor volume and relative tumor volume compared with the model group ([3]; PC3, low, medium and high doses, P<0.05): significantly lower
mouse weight compared with the model group ([3]; mouse, in vivo): no significant changes
Inhibition Rate (tumor growth inhibition rate) [4, 9]: 18.17%
Relative Tumor Proliferation Rate (T/C) [4, 9]: 80.22%
Relative Tumor Volume (RTV) [4, 9]: 12.53 ± 1.78
Tumor Volume (d 1) [4, 9]: 119.72 ± 6.52 mm3
Tumor Volume (d 30) [4, 9]: 1493.96 ± 171.49 mm3
Tumor Weight [4, 9]: 1.90 ± 0.31 g
Inhibition Rate (tumor growth inhibition rate) [4, 10]: 29.66%
Relative Tumor Proliferation Rate (T/C) [4, 10]: 58.78%
Relative Tumor Volume (RTV) [4, 10]: 9.18 ± 2.38
Tumor Volume (d 1) [4, 10]: 119.07 ± 3.19 mm3
Tumor Volume (d 30) [4, 10]: 1094.89 ± 291.37 mm3
Tumor Weight [4, 10]: 1.63 ± 0.32 g
Inhibition Rate (tumor growth inhibition rate) [4, 11]: 58.91%
Relative Tumor Proliferation Rate (T/C) [4, 11]: 30.89%
Relative Tumor Volume (RTV) [4, 11]: 6.08 ± 1.74
Tumor Volume (d 1) [4, 11]: 115.89 ± 9.01 mm3
Tumor Volume (d 30) [4, 11]: 700.44 ± 192.38 mm3
Tumor Weight [4, 11]: 0.95 ± 0.42 g
tumor volume and relative tumor volume compared with the model group ([4]; MDA-MB-231, low, medium and high doses, P<0.05): significantly lower
mouse weight compared with the model group ([4]; mouse, in vivo): no significant changes
Relative Tumor Proliferation Rate (T/C) [5, 12]: 44.05%
tumor growth inhibition rate [5, 12]: 55.74%
Relative Tumor Proliferation Rate (T/C) [5, 13]: 84.18%
tumor growth inhibition rate [5, 13]: 16.24%
tumor volume and relative tumor volume compared with the model group ([5]; HT-29, low, medium and high doses, P<0.05): significantly lower
Relative Tumor Proliferation Rate (T/C) [5, 14]: 79.34%
tumor growth inhibition rate [5, 14]: 32.41%
Inhibition Rate (%) ([5]; 25 mg/kg): 16.24%
Tumor Weight ([5]; 25 mg/kg): 1.97 ± 0.34 g
Inhibition Rate (%) ([5]; 50 mg/kg): 32.41%
Tumor Weight ([5]; 50 mg/kg): 1.59 ± 0.49 g
Inhibition Rate (%) ([5]; 100 mg/kg): 55.74%
Tumor Weight ([5]; 100 mg/kg): 1.04 ± 0.40 g
Relative Tumor Proliferation Rate (T/C) ([5]; dose 25 mg/kg): 84.18%
Relative Tumor Volume (RTV) ([5]; dose 25 mg/kg): 12.13 ± 3.40
Tumor Volume (mm3) (d 1) ([5]; dose 25 mg/kg): 163.26 ± 38.80 mm3
Tumor Volume (mm3) (d30) ([5]; dose 25 mg/kg): 1885.85 ± 219.49 mm3
Relative Tumor Proliferation Rate (T/C) ([5]; dose 50 mg/kg): 79.34%
Relative Tumor Volume (RTV) ([5]; dose 50 mg/kg): 11.43 ± 5.13
Tumor Volume (mm3) (d 1) ([5]; dose 50 mg/kg): 142.56 ± 22.44 mm3
Tumor Volume (mm3) (d30) ([5]; dose 50 mg/kg): 1568.80 ± 603.77 mm3
Relative Tumor Proliferation Rate (T/C) ([5]; dose 100 mg/kg): 44.05%
Relative Tumor Volume (RTV) ([5]; dose 100 mg/kg): 6.35 ± 2.87
Tumor Volume (mm3) (d 1) ([5]; dose 100 mg/kg): 156.45 ± 37.20 mm3
Tumor Volume (mm3) (d30) ([5]; dose 100 mg/kg): 921.49 ± 299.38 mm3
mouse weight compared with the model group ([5]; mouse, in vivo): no significant changes
Body Weight (g) (d1) ([5]; mouse, in vivo, 25 mg/kg): 21.04 ± 1.28 g
Body Weight (g) (d30) ([5]; mouse, in vivo, 25 mg/kg): 20.88 ± 1.29 g
Body Weight (g) (d1) ([5]; mouse, in vivo, 50 mg/kg): 21.36 ± 1.35 g
Body Weight (g) (d30) ([5]; mouse, in vivo, 50 mg/kg): 20.9 ± 1.29 g
Body Weight (g) (d1) ([5]; mouse, in vivo, 100 mg/kg): 20.80 ± 0.89 g
Body Weight (g) (d30) ([5]; mouse, in vivo, 100 mg/kg): 21.53 ± 1.08 g
